Test results: ChEMBL document CHEMBL1141767, “Lignans from bark of Larix olgensis var. koreana” (J Nat Prod, 2005)
In brackets after ≈: the same amount, converted by molar mass.

Key:
Type in all cases: functional, cell-based
[1] = Cytotoxicity against human PC3M cells after 72 hrs by MTT assay; details: PC-3M
[2] = system: K562; assay: Cytotoxicity against human K562 cells after 72 hrs by MTT assay; details: K562, 72 h
[3] = Cytotoxicity against human SGH44 cells after 72 hrs by MTT assay; details: SGH44, 72 h
[4] = system: A549; assay: Cytotoxicity against human A549 cells after 72 hrs by MTT assay; details: A549, 72 h
[5] = system: HCT-8; assay: Cytotoxicity against human HCT8 cells after 72 hrs by MTT assay; details: HCT-8, 72 h

For `COc1cc(C[C@@H]2CO[C@@H](c3ccc(O)c(OC)c3)[C@@H]2COC(=O)/C=C/c2ccc(O)cc2)ccc1O`, which IC50 [1] is on record?
The IC50 was 28 µg/mL (≈ 55.3 µM).

And the IC50 [2]?
Its IC50 is 2.9 µg/mL (≈ 5.72 µM).

What about the IC50 [3] of the same molecule?
The IC50 was 21.4 µg/mL (≈ 42.2 µM).

And the IC50 [4]?
Its IC50 is 33.8 µg/mL (≈ 66.7 µM).

What about the IC50 [5] of the same molecule?
Its IC50 is 32.9 µg/mL (≈ 64.9 µM).
